This note sets out measurements from patent US20120058085A1, “Deuterium Modified Benzimidazoles” (priority 2009, published 2012).

SMILES strings stand for the structures. Like-named read-outs stand apart in the source and are kept apart here.

A short description of this series: Evaluation of Metabolic Stability in Human Liver Microsomes. It is filed as in vitro ADME. The settings on record: for percentage increase in half-life in going from clemizole to the test compound, Average / percentage increase in half-life in going from clemizole to the test compound, run A / percentage increase in half-life in going from clemizole to the test compound, run B / percentage increase in half-life in going from clemizole to the test compound, run C / percentage increase in half-life in going from clemizole to the test compound, run D: HLM, relative to clemizole; for half-life: human, microsomes. The method, then:
Human liver microsomes (20 mg/mL) are obtained from Xenotech, LLC (Lenexa, KS). β-nicotinamide adenine dinucleotide phosphate, reduced form (NADPH), magnesium chloride (MgCl2), and dimethyl sulfoxide (DMSO) are purchased from Sigma-Aldrich.
Determination of Metabolic Stability: 7.5 mM stock solutions of test compounds are prepared in DMSO. The 7.5 mM stock solutions are diluted to 12.5 μM in acetonitrile (ACN). The 20 mg/mL human liver microsomes are diluted to 0.625 mg/mL in 0.1 M potassium phosphate buffer, pH 7.4, containing 3 mM MgCl2. The diluted microsomes (375 μL) are added to wells of a 96-well deep-well polypropylene plate in triplicate. Ten to 40 μL of the 12.5 μM test compound is added to the microsomes and the mixture is pre-warmed for 10 minutes. Reactions are initiated by addition of 125 μL of pre-warmed NADPH solution. The final reaction volume is 0.5 mL and contains 0.5 mg/mL human liver microsomes, 0.25-1.0 μM test compound, and 2 mM NADPH in 0.1 M potassium phosphate buffer, pH 7.4, and 3 mM MgCl2. The reaction mixtures are incubated at 37° C., and 50 μL aliquots are removed at 0, 5, 10, 20, and 30 minutes and added to shallow-well 96-well plates which contain 50 μL of ice-cold ACN with internal standard to stop the reactions. The plates are stored at 4° C. for 20 minutes after which 100 μL of water is added to the wells of the plate before centrifugation to pellet precipitated proteins. Supernatants are transferred to another 96-well plate and analyzed for amounts of parent compound remaining by LC-MS/MS using an Applied Bio-systems API 4000 mass spectrometer. The same procedure is followed for the non-deuterated counterpart of the compound of Formula I and the positive control, 7-ethoxycoumarin (1 μM). Testing is done in triplicate.
Data analysis: The in vitro half-lives (t1/2s) for test compounds are calculated from the slopes of the linear regression of % parent remaining (In) vs incubation time relationship using the following formula:
in vitro t1/2=0.693/k, where k=-[slope of linear regression of % parent remaining(1n) vs incubation time]
Data analysis is performed using Microsoft Excel Software.
Four separate metabolic stability runs were performed in Human Liver Microsomes (HLM) for clemizole and for test compounds of the invention. […] The values in parenthesis in columns A through D and in the “Average” column indicate the percentage increase in half-life in going from clemizole to the test compound.

The mark [1] stands for this setting: pH 7.4, HLM 0.5 mg/mL, 2 mM NADPH, 37° C., run A, read-out: t½ (min) A.
Where [2] appears, read: pH 7.4, HLM 0.5 mg/mL, 2 mM NADPH, 37° C., run B, read-out: t½ (min) B.
Setting [3] is: pH 7.4, HLM 0.5 mg/mL, 2 mM NADPH, 37° C., run C, read-out: t½ (min) C.
Setting [4] is: pH 7.4, HLM 0.5 mg/mL, 2 mM NADPH, 37° C., run D, read-out: t½ (min) D.
Setting [5] is: pH 7.4, HLM, average of runs A-D, read-out: Ave t½.

As to `[2H]C([2H])(c1ccc(Cl)cc1)n1c(CN2CCCC2)nc2ccccc21` [Compound 100, 1-(4-Chlorophenyl-d2-methyl)-2-(pyrrolidin-1-ylmethyl)-1H-benzo[d]imid-azole], the “percentage increase in half-life in going from clemizole to the test compound, Average” value (average of runs A-D) is given as “(+4%)”. For the same molecule, the “percentage increase in half-life in going from clemizole to the test compound, run A” value (“percentage increase in half-life … run A” for short) (run A) is “(+2%)”. The “percentage increase in half-life in going from clemizole to the test compound, run B” value (“percentage increase in half-life … run B” for short) (run B) is “(+0.3%)”. In addition, the “percentage increase in half-life in going from clemizole to the test compound, run C” value (“percentage increase in half-life … run C” for short) (run C) is “(+4%)”. The “percentage increase in half-life in going from clemizole to the test compound, run D” value (“percentage increase in half-life … run D” for short) (run D) was “(+13%)”. Besides, the half-life is, setting by setting: under setting [1], 13.7 min; under setting [2], 14.1 min; under setting [3], 13.8 min; under setting [4], 13.8 min; under setting [5], 13.9 min.

On to `[2H]C([2H])(c1nc2ccccc2n1Cc1ccc(Cl)cc1)N1CCCC1` [Compound 101, 1-(4-Chlorobenzyl)-2-(d2-(pyrrolidin-1-yl)methyl)-1H-benzo[d]imidazole], for which the “percentage increase in half-life … run A” value (run A) is recorded as “(+18%)”. Besides, the “percentage increase in half-life … run B” value (run B) was “(+8%)”. Further, the “percentage increase in half-life … run C” value (run C) is given as “(+9%)”. For the same molecule, the “percentage increase in half-life … run D” value (run D) was “(+14%)”. The half-life came out at 15.9 min under setting [1]; 15.2 min under setting [2]; 14.4 min under setting [3]; 14 min under setting [4]; 14.9 min under setting [5].

On to `[2H]C1([2H])N(Cc2nc3ccccc3n2Cc2ccc(Cl)cc2)C([2H])([2H])C([2H])([2H])C1([2H])[2H]` [Compound 102, 1-(4-Chlorobenzyl)-2-((2,2,3,3,4,4,5,5-d8-pyrrolidin-1-yl)methyl)-1H-benzo[d]imidazole], for which the “percentage increase in half-life … run A” value (run A) is “(+41%)”. In addition, where the note is “run B”, the “percentage increase in half-life … run B” value was “(+38%)”. Also, where the note is “run C”, the “percentage increase in half-life … run C” value is listed as “(+32%)”. For the same molecule, the “percentage increase in half-life … run D” value (run D) was “(+36%)”. Further, the half-life worked out at 18.9 min under setting [1]; 19.4 min under setting [2]; 17.6 min under setting [3]; 16.7 min under setting [4]; 18.2 min under setting [5].

`[2H]C1([2H])CCC([2H])([2H])N1Cc1nc2ccccc2n1Cc1ccc(Cl)cc1` [Compound 104]: the “percentage increase in half-life … run A” value (run A) is “(+15%)”. For the same molecule, the “percentage increase in half-life … run B” value (run B) is reported as “(+16%)”. Also, the “percentage increase in half-life … run C” value (run C) is listed as “(+17%)”. Also, for the setting “run D”, the “percentage increase in half-life … run D” value is “(+27%)”. Further, the half-life runs as follows: under setting [1], 15.5 min; under setting [2], 16.3 min; under setting [3], 15.5 min; under setting [4], 15.6 min; under setting [5], 15.7 min.

For `[2H]C([2H])(c1nc2ccccc2n1C([2H])([2H])c1ccc(Cl)cc1)N1CCCC1` [Compound 105, 1-(4-Chlorophenyl-d2-methyl)-2-(d2-(pyrrolidin-1-yl)methyl)-1H-benzo[d]imidazole], under “average of runs A-D”, the “percentage increase in half-life in going from clemizole to the test compound, Average” value is reported as “(+6%)”. The “percentage increase in half-life … run A” value (run A) was “(+0.9%)”. Also, the “percentage increase in half-life … run B” value (run B) is listed as “(+6%)”. For the same molecule, under “run C”, the “percentage increase in half-life … run C” value is given as “(+6%)”. In addition, the “percentage increase in half-life … run D” value (run D) was “(+13%)”. The half-life is, setting by setting: under setting [1], 13.6 min; under setting [2], 14.9 min; under setting [3], 14 min; under setting [4], 13.9 min; under setting [5], 14 min.

In the case of `[2H]C([2H])(c1ccc(Cl)cc1)n1c(CN2C([2H])([2H])C([2H])([2H])C([2H])([2H])C2([2H])[2H])nc2ccccc21` [Compound 106], the “percentage increase in half-life … run A” value (run A) is recorded as “(+21%)”. Besides, the “percentage increase in half-life … run B” value (run B) is reported as “(+22%)”. Further, the “percentage increase in half-life … run C” value (run C) is reported as “(+22%)”. Further, the “percentage increase in half-life … run D” value (run D) is given as “(+36%)”. For the same molecule, the half-life was 16.2 min under setting [1]; 17.2 min under setting [2]; 16.2 min under setting [3]; 16.7 min under setting [4]; 16.6 min under setting [5].

Consider `[2H]C([2H])(c1nc2ccccc2n1C([2H])([2H])c1ccc(Cl)cc1)N1C([2H])([2H])C([2H])([2H])C([2H])([2H])C1([2H])[2H]` [Compound 110, 1-(4-Chlorophenyl-d2-methyl)-2-(d2-(2,2,3,3,4,4,5,5-d8-pyrrolidin-1-yl)methyl)-1H-benzo[d]imidazole], for which, where the note is “run A”, the “percentage increase in half-life … run A” value is given as “(+18%)”. Also, the “percentage increase in half-life … run B” value (run B) is on record as “(+30%)”. Moreover, under “run C”, the “percentage increase in half-life … run C” value is “(+34%)”. Besides, the “percentage increase in half-life … run D” value (run D) is given as “(+38%)”. In addition, the half-life is 15.8 min under setting [1]; 18.2 min under setting [2]; 17.8 min under setting [3]; 17 min under setting [4]; 17.2 min under setting [5].

Turning to `Clc1ccc(Cn2c(CN3CCCC3)nc3ccccc32)cc1` [clemizole, 1-(p-chlorobenzyl)-2-(1-pyrrolidinylmethyl) benzimidazole, reference compound], the half-life under setting [1] is 13.5 min; the half-life under setting [2] was 14 min; the half-life under setting [3] came out at 13.3 min; the half-life under setting [4] came out at 12.3 min; the half-life under setting [5] was 13.3 min.
